The source of these data is patent US7566712B2, “Biaryl piperazinyl-pyridine analogues” (Neurogen Corporation, priority 2003, dated 2009).

pIC50: −log10 of the molar value. Bounds are passed on as bounds.

The first assay deals with T1, human capsaicin receptor (Homo sapiens, UniProt Q8NER1).
T1 construct: pBK-CMV expression construct encoding the full length human capsaicin receptor; expressed in transfected cells
T1 sequence (Q8NER1 whole entry): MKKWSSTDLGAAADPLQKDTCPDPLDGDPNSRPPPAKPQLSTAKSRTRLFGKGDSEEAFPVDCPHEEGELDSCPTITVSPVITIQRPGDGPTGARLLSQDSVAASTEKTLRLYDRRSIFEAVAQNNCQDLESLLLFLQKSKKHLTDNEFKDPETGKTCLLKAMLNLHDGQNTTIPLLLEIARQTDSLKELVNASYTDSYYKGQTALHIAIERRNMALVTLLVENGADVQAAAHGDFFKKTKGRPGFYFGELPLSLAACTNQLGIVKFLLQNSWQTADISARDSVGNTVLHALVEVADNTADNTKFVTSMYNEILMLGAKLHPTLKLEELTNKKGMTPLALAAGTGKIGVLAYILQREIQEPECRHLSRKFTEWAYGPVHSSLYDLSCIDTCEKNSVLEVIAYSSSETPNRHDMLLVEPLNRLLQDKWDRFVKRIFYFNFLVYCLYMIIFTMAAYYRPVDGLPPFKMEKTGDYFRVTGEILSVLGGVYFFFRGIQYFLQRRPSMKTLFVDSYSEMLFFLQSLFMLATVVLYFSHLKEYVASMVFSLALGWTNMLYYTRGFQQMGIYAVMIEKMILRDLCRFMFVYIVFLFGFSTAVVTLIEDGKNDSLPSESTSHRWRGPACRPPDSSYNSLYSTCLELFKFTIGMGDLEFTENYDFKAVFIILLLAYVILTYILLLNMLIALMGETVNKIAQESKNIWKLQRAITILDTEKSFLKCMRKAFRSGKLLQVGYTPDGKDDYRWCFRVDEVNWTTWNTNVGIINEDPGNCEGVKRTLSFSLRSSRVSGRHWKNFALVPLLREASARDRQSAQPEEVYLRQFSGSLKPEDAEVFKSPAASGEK
The assay can be described thus: Calcium mobilization assay, determination of antagonist activity (Example 6). Format: cell-based. The following applies: Table II; IC50 determined as described in Example 6. The essentials:
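Antagonism measured as inhibition of capsaicin-evoked (final concentration = EC50, from an 8-point 1 nM–3 μM curve) Fluo-3 calcium signal in stable hVR1-HEK293 cells. Test compounds at 1–5 μM final, 0.5–6 h dark preincubation at room temperature. IC50 = concentration giving 50% reduction versus agonist-only response.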
With `Cc1cccnc1N1CCN(c2cc(-c3ccc(Cl)cc3)nc(N3CCOCC3)n2)[C@H](C)C1` [Example 483, 4-{4-(4-chlorophenyl)-6-[(2R)-2-methyl-4-(3-methylpyridin-2-yl)piperazin-1-yl]pyrimidin-2-yl}morpholine], the pIC50 is at least 6.00.

`CC(C)c1ccc(-c2cc(N3CCN(c4ncccc4Cl)C[C@H]3C)nc(N3CCOCC3)n2)cc1` [Example 505, 4-[4-[(2R)-4-(3-chloropyridin-2-yl)-2-methylpiperazin-1-yl]-6-(4-isopropylphenyl)pyrimidin-2-yl]morpholine]: the pIC50 was at least 6.00. With `CC(=O)NC1CCN(c2nc(-c3ccc(F)c(Cl)c3)cc(N3CCN(c4ncccc4C(F)(F)F)CC3)n2)C1` (stereo not drawn) [Example 570, N-[1-(4-(3-chloro-4-fluorophenyl)-6-{4-[3-(trifluoromethyl)pyridin-2-yl]piperazin-1-yl}pyrimidin-2-yl)pyrrolidin-3-yl]acetamide], the pIC50 is at least 6.00. Same read-out and setting: the result for `C[C@@H]1CN(c2ncccc2C(F)(F)F)CCN1c1cc(-c2ccc(OC(F)(F)F)cc2)nc(N2CCOCC2)n1` [Example 528, 4-{4-{(2R)-2-methyl-4-(3-(trifluoromethyl)pyridin-2-yl]piperazin-1-yl}-6-[4-(trifluoromethoxy)phenyl]pyrimidin-2-yl}morpholine] reads at least 6.00; that for `NC1CCN(c2nc(-c3ccc(F)c(Cl)c3)cc(N3CCN(c4ncccc4C(F)(F)F)CC3)n2)CC1` [Example 569, 1-(4-(3-chloro-4-fluorophenyl)-6-{4-[3-(trifluoromethyl)pyridin-2-yl]piperazin-1-yl}pyrimidin-2-yl)piperidin-4-amine], at least 6.00.

The assay is the same for the next values; noted with them: Table II; determined as described in Example 6 (antagonist activity); "*" = 1 micromolar or less.
Take `COC[C@@H]1CCCN1c1nc(-c2ccc(F)cc2)cc(N2CCN(c3ncccc3Cl)C[C@H]2C)n1` [Example 843, 4-[(2R)-4-(3-chloropyridin-2-yl)-2-methylpiperazin-1-yl]-6-(4-fluorophenyl)-2-[(2S)-2-(methoxymethyl)pyrrolidin-1-yl]pyrimidine]: the pIC50 was at least 6.00.

As to `C[C@@H]1CN(c2nccnc2Cl)CCN1c1cc(-c2ccc(F)c(Cl)c2)nc(N2CCC[C@H]2C)n1` [Example 942, 4-(3-chloro-4-fluorophenyl)-6-[(2R)-4-(3-chloropyrazin-2-yl)-2-methylpiperazin-1-yl]-2-[(2R)-2-methylpyrrolidin-1-yl]pyrimidine], the negative-log IC50 (pIC50) was at least 6.00. On the same count and under the same terms, the result for `Fc1ccc(-c2cc(N3CCN(c4ncccc4C(F)(F)F)CC3)nc(N3C[C@H]4C[C@@H]3CN4)n2)cc1Cl` [Example 775, (1R,4R)-2-(4-(3-chloro-4-fluorophenyl)-6-{4-[3-(trifluoromethyl)pyridin-2-yl]piperazin-1-yl}pyrimidin-2-yl)-2,5-diazabicyclo[2.2.1]heptane] reads at least 6.00; that for `CC1=NCCN1c1nc(-c2ccc(F)c(Cl)c2)cc(N2CCN(c3ncccc3C(F)(F)F)CC2)n1` [Example 801, 4-(3-chloro-4-fluorophenyl)-2-(2-methyl-4,5-dihydro-1H-imidazol-1-yl)-6-{4-[3-(trifluoromethyl)pyridin-2-yl]piperazin-1-yl}pyrimidine], at least 6.00. As to `Cc1ccc(-c2cc(N3CCN(c4ncccc4Cl)C[C@H]3C)nc(N3CCCCC3)n2)cc1F` [Example 804, 4-[(2R)-4-(3-chloropyridin-2-yl)-2-methylpiperazin-1-yl]-6-(3-fluoro-4-methylphenyl)-2-piperidin-1-ylpyrimidine], the negative-log IC50 (pIC50) was at least 6.00. The same measure, in the same setting: the result for `Cc1ccc(C)n1-c1nc(-c2ccc(F)cc2)cc(N2CCN(c3ncccc3C(F)(F)F)CC2)n1` [Example 875, 2-(2,5-dimethyl-1H-pyrrol-1-yl)-4-(4-fluorophenyl)-6-{4-[3-(trifluoromethyl)pyridin-2-yl]piperazin-1-yl}pyrimidine] reads at least 6.00.

The same assay, now with this note: Table II; determined as described in Example 6; class symbol.
Turning to `Cc1cccc(-c2nc(N3CCOCC3)nc(N3CCN(c4ncccc4C(F)(F)F)CC3)n2)c1` [Example 238, 2-(3-methylphenyl)-4-morpholin-4-yl-6-{4-[3-(trifluoromethyl)pyridin-2-yl]piperazin-1-yl}-1,3,5-triazine], the pIC50 was at least 6.00.

Staying with this assay, now noted: determined as described in Example 6 (calcium mobilization, antagonist activity); Table II.
For `CCC1CCCCN1c1nc(-c2ccc(F)c(Cl)c2)cc(N2CCN(c3ncccc3C(F)(F)F)CC2)n1` (stereo not drawn) [Example 613, 4-(3-chloro-4-fluorophenyl)-2-(2-ethylpiperidin-1-yl)-6-{4-[3-(trifluoromethyl)pyridin-2-yl]piperazin-1-yl}pyrimidine], the pIC50 is at least 6.00. Same read-out and setting: the result for `Cc1cc(-c2cc(N3CCN(c4ncccc4Cl)CC3)nc(N3CCCC3C)n2)ccc1F` (stereo not drawn) [Example 698, 4-[4-(3-chloropyridin-2-yl)piperazin-1-yl]-6-(4-fluoro-3-methylphenyl)-2-(2-methylpyrrolidin-1-yl)pyrimidine] reads at least 6.00; that for `CC(C)N1CC=C(c2nc(-c3ccc(F)c(Cl)c3)cc(N3CCN(c4ncccc4C(F)(F)F)CC3)n2)CC1` [Example 660, 4-(3-chloro-4-fluorophenyl)-2-(1-isopropyl-1,2,3,6-tetrahydropyridin-4-yl)-6-{4-[3-(trifluoromethyl)pyridin-2-yl]piperazin-1-yl}pyrimidine], at least 6.00. On the same count and under the same terms, the result for `CC1CCCCN1c1nc(-c2ccc(F)c(Cl)c2)cc(N2CCN(c3ncccc3Cl)C[C@H]2C)n1` (stereo partly drawn) [Example 741, 4-(3-chloro-4-fluorophenyl)-6-[(2R)-4-(3-chloropyridin-2-yl)-2-methylpiperazin-1-yl]-2-(2-methytpiperidin-1-yl)pyrimidine] reads at least 6.00; that for `CC1CCCCN1c1nc(-c2ccc(F)c(Cl)c2)cc(N2CCN(c3ncccc3C(F)(F)F)CC2)n1` (stereo not drawn) [Example 611, 4-(3-chloro-4-fluorophenyl)-2-(2-methylpiperidin-1-yl)-6-{4-[3-(trifluoromethyl)pyridin-2-yl]piperazin-1-yl}pyrimidine], at least 6.00; that for `C[C@@H]1CN(c2nc(-c3ccc(F)c(Cl)c3)cc(N3CCN(c4ncccc4C(F)(F)F)CC3)n2)[C@@H](C)CN1` [Example 627, 4-(3-chloro-4-fluorophenyl)-2-[(2S,5R)-2,5-dimethylpiperazin-1-yl]-6-{4-[3-(trifluoromethyl)pyridin-2-yl]piperazin-1-yl}pyrimidine], at least 6.00. Same read-out and setting: the result for `CCc1nccn1-c1nc(-c2ccc(F)c(Cl)c2)cc(N2CCN(c3ncccc3C(F)(F)F)CC2)n1` [Example 648, 4-(3-chloro-4-fluorophenyl)-2-(2-ethyl-1H-imidazol-1-yl)-6-{4-[3-(trifluoromethyl)pyridin-2-yl]piperazin-1-yl}pyrimidine] reads at least 6.00.

Turning to `Cc1cc(-c2cc(N3CCN(c4ncccc4C(F)(F)F)CC3)nc(N3CCOCC3)n2)cc(C)n1` [Example 590, 4-(4-(2,6-dimethylpyridin-4-yl)-6-{4-[3-(trifluoromethyl)pyridin-2-yl]piperazin-1-yl}pyrimidin-2-yl)morpholine], the negative logarithm of the IC50 (pIC50) is at least 6.00.

As to `CC(C)N1CCN(c2nc(-c3ccc(F)c(Cl)c3)cc(N3CCN(c4ncccc4C(F)(F)F)CC3)n2)CC1` [Example 598, 4-(3-chloro-4-fluorophenyl)-2-(4-isopropylpiperazin-1-yl)-6-{4-[3-(trifluoromethyl)pyridin-2-yl]piperazin-1-yl}pyrimidine], the negative-log IC50 (pIC50) was at least 6.00.

One may read the pIC50 as the IC50 on a negative log10 scale, so that one unit is a factor of ten.
